{
  "source": "patent US11697648B2",
  "about": "“Fused pyrimidine pyridinone compounds as JAK inhibitors” (THERAVANCE BIOPHARMA R&D IP, LLC, priority 2019, dated 2023)",
  "data": [
    {"tested_on": "Caco-2 cell monolayers", "assay": "Caco-2 permeation assay", "assay_type": "in vitro ADME", "settings": "5 μM, A-B direction, with Verapamil (25 μM)", "method": "Assay 4: Caco-2 Permeation Assay\nThe Caco-2 permeation assay was performed to model the ability of test compounds to pass through the intestine and get into the blood stream after oral administration. The rate at which test compounds in solution permeate a cell monolayer designed to mimic the tight junction of human small intestinal monolayers was determined.\nCacoReady 24-well transwell plates were obtained from ADMEcell (Alameda, Calif.). The compounds were evaluated at a concentration of 5 μM from 10 mM DMSO stock solutions in duplicate (n=2). The passive permeability of the compounds tested was evaluated using Caco-2 cell monolayers along with Verapamil (25 μM) to inhibit P-gp transport proteins in the apical to basolateral (A-B) direction. The experiment was conducted in a 37° C., 5% CO2 incubator. Caco-2 culture media consisted of standard filtered DMEM, FCS 10%, L-Glutamine 1% and PenStrep 1%. Basal assay plate was prepared by adding 750 μL of transport buffer to A-B wells. A CacoReady™ plate was prepared by removing the Caco-2 media from the apical wells and replacing with fresh transport media (200 μL repeated for a total of 3 washes). Blank media (200 μL) was then replaced with diluted compound for A-B wells. To begin the incubation, the basal plate was removed from the incubator and the apical section was added on top of it. Samples (40 μL) were collected from the apical and basal compartments for time zero (t0). Samples were collected again after 120 minutes (t120) from the apical and basal compartments. All samples were diluted and prepared for bioanalysis by LC-MS/MS. The permeation coefficient (Kp, mean A to B+ Verapamil Papparent) in cm/sec was calculated as dQ (flux)/(dt×Area×concentration).\nIn this assay, a Kp value less than about 5×10^−6 cm/sec is considered favorable to minimize systemic exposure and target the colon. A Kp value less than about 10×10^−6 cm/sec may also be sufficient to minimize systemic exposure and target the colon.", "values": [
      {"compound": "C=CC(=O)N1CC(CCn2c(=O)ccc3cnc(Nc4ccc(NS(C)(=O)=O)cc4)nc32)C1", "note": "[Example 69]", "Caco Kp": "A (A represents a value below 5×10^−6 cm/sec)"},
      {"compound": "C=CC(=O)N1CC(CCn2c(=O)ccc3cnc(Nc4ccc(N5CCN(C(=O)COC)CC5)cc4)nc32)C1", "note": "[Example 70]", "Caco Kp": "A (A represents a value below 5×10^−6 cm/sec)"},
      {"compound": "C=CC(=O)N1CC(CCn2c(=O)ccc3cnc(Nc4ccc(N5CCN(C(=O)OC)CC5)cc4)nc32)C1", "note": "[Example 71]", "Caco Kp": "B (B represents a value between 5×10^−6 and 10×10^−6 cm/sec)"},
      {"compound": "C=CC(=O)N1CC(CCn2c(=O)ccc3cnc(Nc4ccc(N5CCN(C(=O)CC#N)CC5)cc4)nc32)C1", "note": "[Example 72]", "Caco Kp": "A (A represents a value below 5×10^−6 cm/sec)"},
      {"compound": "C=CC(=O)N1CC(CCn2c(=O)ccc3cnc(Nc4cccc(N5CCN(C(C)=O)CC5)c4)nc32)C1", "note": "[Example 78]", "Caco Kp": "A (A represents a value below 5×10^−6 cm/sec)"}
    ]},
    {"molecular_target": "JAK2 (Homo sapiens (Human), UniProt O60674)", "sequence (O60674 whole entry)": "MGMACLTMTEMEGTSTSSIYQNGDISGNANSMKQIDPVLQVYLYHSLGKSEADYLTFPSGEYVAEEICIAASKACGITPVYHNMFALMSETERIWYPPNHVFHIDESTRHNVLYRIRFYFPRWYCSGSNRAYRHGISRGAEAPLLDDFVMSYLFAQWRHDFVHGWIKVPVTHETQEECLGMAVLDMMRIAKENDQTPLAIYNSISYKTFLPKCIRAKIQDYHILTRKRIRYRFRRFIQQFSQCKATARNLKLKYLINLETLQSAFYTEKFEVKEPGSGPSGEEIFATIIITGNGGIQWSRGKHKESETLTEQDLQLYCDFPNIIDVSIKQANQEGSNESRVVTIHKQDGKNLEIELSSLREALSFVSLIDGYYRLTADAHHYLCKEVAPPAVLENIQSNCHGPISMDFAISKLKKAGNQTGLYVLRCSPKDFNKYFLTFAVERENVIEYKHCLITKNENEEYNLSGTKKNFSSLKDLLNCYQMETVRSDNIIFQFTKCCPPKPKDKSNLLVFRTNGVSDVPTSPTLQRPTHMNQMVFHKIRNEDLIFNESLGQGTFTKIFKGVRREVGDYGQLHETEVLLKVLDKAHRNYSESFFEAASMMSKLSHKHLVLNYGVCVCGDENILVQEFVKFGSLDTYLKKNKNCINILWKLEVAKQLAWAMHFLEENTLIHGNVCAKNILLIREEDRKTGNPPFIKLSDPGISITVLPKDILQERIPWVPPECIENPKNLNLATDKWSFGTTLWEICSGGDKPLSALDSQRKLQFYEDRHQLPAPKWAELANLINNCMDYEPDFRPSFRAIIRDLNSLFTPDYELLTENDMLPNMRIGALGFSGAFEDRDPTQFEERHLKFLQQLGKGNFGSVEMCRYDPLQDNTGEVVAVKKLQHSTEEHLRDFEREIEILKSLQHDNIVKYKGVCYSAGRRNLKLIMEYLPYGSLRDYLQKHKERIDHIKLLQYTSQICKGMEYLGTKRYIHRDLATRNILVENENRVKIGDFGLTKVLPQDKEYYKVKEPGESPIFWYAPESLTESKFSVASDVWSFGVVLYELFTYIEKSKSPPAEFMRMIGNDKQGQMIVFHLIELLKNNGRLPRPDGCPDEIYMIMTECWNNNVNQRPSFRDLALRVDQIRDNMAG", "assay": "Biochemical JAK2 kinase assay (LanthaScreen)", "settings": "not given", "in_short": "(§1)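 GST-JAK + GFP-STAT1 peptide, HEPES pH 7.5/MgCl2/EGTA/Brij-35 buffer; cpd preincubation 1 h RT; ATP start, 1 h RT; stop with 10 mM EDTA + 2 nM Tb-anti-pSTAT1; TR-FRET 520/495. 4-parameter IC50 → pKi (Cheng-Prusoff).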", "values": [
      {"compound": "C=CC(=O)N1CC(CCn2c(=O)ccc3cnc(Nc4ccc(NS(C)(=O)=O)cc4)nc32)C1", "note": "[Example 69]", "JAK 2 (pKi)": "E (E represents a pKi value of 7 or below (Ki of 100 nM or above))"},
      {"compound": "C=CC(=O)N1CC(CCn2c(=O)ccc3cnc(Nc4ccc(N5CCN(C(=O)COC)CC5)cc4)nc32)C1", "note": "[Example 70]", "JAK 2 (pKi)": "E (E represents a pKi value of 7 or below (Ki of 100 nM or above))"},
      {"compound": "C=CC(=O)N1CC(CCn2c(=O)ccc3cnc(Nc4ccc(N5CCN(C(=O)OC)CC5)cc4)nc32)C1", "note": "[Example 71]", "JAK 2 (pKi)": "E (E represents a pKi value of 7 or below (Ki of 100 nM or above))"},
      {"compound": "C=CC(=O)N1CC(CCn2c(=O)ccc3cnc(Nc4ccc(N5CCN(C(=O)CC#N)CC5)cc4)nc32)C1", "note": "[Example 72]", "JAK 2 (pKi)": "E (E represents a pKi value of 7 or below (Ki of 100 nM or above))"},
      {"compound": "C=CC(=O)N1CC(CCn2c(=O)ccc3cnc(Nc4cccc(N5CCN(C(C)=O)CC5)c4)nc32)C1", "note": "[Example 78]", "JAK 2 (pKi)": "E (E represents a pKi value of 7 or below (Ki of 100 nM or above))"}
    ]},
    {"molecular_target": "JAK3 (Homo sapiens (Human), UniProt P52333)", "sequence (P52333 whole entry)": "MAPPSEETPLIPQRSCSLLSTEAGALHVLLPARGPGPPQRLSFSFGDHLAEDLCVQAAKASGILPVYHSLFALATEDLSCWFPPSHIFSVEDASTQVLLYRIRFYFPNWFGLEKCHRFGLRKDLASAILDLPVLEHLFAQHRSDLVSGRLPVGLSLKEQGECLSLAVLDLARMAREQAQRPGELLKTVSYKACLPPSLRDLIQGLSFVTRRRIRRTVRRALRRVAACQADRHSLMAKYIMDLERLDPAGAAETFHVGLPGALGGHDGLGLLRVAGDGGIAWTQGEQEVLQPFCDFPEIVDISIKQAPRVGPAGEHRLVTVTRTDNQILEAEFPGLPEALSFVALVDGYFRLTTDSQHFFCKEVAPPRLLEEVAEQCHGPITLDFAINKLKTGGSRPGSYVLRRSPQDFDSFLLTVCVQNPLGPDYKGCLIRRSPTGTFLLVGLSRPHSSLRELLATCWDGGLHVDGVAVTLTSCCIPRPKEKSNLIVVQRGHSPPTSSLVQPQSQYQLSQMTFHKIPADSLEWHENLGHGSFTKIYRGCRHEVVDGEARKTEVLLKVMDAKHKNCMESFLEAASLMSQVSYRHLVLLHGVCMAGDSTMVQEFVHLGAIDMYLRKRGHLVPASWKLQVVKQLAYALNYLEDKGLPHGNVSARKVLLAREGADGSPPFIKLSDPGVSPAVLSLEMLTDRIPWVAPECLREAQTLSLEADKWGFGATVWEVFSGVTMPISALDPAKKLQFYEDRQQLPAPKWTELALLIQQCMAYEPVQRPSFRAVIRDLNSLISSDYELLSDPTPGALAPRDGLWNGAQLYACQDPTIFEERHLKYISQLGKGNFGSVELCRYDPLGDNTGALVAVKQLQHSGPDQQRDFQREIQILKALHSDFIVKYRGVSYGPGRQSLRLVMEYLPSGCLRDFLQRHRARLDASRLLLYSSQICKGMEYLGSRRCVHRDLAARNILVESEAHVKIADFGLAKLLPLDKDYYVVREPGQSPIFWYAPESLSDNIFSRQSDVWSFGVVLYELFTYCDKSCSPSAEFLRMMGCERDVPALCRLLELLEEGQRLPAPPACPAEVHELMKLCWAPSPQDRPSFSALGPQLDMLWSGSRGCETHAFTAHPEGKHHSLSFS", "assay": "Biochemical JAK3 kinase assay (LanthaScreen)", "settings": "not given", "in_short": "as §1", "values": [
      {"compound": "C=CC(=O)N1CC(CCn2c(=O)ccc3cnc(Nc4ccc(NS(C)(=O)=O)cc4)nc32)C1", "note": "[Example 69]", "JAK 3 (pKi)": "A (A represents a pKi value≥10 (Ki≤0.1 nM))"},
      {"compound": "C=CC(=O)N1CC(CCn2c(=O)ccc3cnc(Nc4ccc(N5CCN(C(=O)COC)CC5)cc4)nc32)C1", "note": "[Example 70]", "JAK 3 (pKi)": "B (B represents pKi value between 9 and 10 (Ki between 1 nM and 0.1 nM))"},
      {"compound": "C=CC(=O)N1CC(CCn2c(=O)ccc3cnc(Nc4ccc(N5CCN(C(=O)OC)CC5)cc4)nc32)C1", "note": "[Example 71]", "JAK 3 (pKi)": "B (B represents pKi value between 9 and 10 (Ki between 1 nM and 0.1 nM))"},
      {"compound": "C=CC(=O)N1CC(CCn2c(=O)ccc3cnc(Nc4ccc(N5CCN(C(=O)CC#N)CC5)cc4)nc32)C1", "note": "[Example 72]", "JAK 3 (pKi)": "B (B represents pKi value between 9 and 10 (Ki between 1 nM and 0.1 nM))"},
      {"compound": "C=CC(=O)N1CC(CCn2c(=O)ccc3cnc(Nc4cccc(N5CCN(C(C)=O)CC5)c4)nc32)C1", "note": "[Example 78]", "JAK 3 (pKi)": "B (B represents pKi value between 9 and 10 (Ki between 1 nM and 0.1 nM))"}
    ]},
    {"molecular_target": "JAK3 (Homo sapiens (Human), UniProt P52333)", "assay": "Biochemical JAK3 kinase assay (LanthaScreen)", "settings": "selectivity JAK3 over JAK1, difference of pKi", "in_short": "as §1", "values": [
      {"compound": "C=CC(=O)N1CC(CCn2c(=O)ccc3cnc(Nc4ccc(NS(C)(=O)=O)cc4)nc32)C1", "note": "[Example 69]", "JAK3 (pKi)-JAK1 (pKi)": "A (A represents a value of 3 or above)"},
      {"compound": "C=CC(=O)N1CC(CCn2c(=O)ccc3cnc(Nc4ccc(N5CCN(C(=O)COC)CC5)cc4)nc32)C1", "note": "[Example 70]", "JAK3 (pKi)-JAK1 (pKi)": "A (A represents a value of 3 or above)"},
      {"compound": "C=CC(=O)N1CC(CCn2c(=O)ccc3cnc(Nc4ccc(N5CCN(C(=O)OC)CC5)cc4)nc32)C1", "note": "[Example 71]", "JAK3 (pKi)-JAK1 (pKi)": "A (A represents a value of 3 or above)"},
      {"compound": "C=CC(=O)N1CC(CCn2c(=O)ccc3cnc(Nc4ccc(N5CCN(C(=O)CC#N)CC5)cc4)nc32)C1", "note": "[Example 72]", "JAK3 (pKi)-JAK1 (pKi)": "A (A represents a value of 3 or above)"},
      {"compound": "C=CC(=O)N1CC(CCn2c(=O)ccc3cnc(Nc4cccc(N5CCN(C(C)=O)CC5)c4)nc32)C1", "note": "[Example 78]", "JAK3 (pKi)-JAK1 (pKi)": "A (A represents a value of 3 or above)"}
    ]},
    {"tested_on": "IL-2 stimulated STAT5 phosphorylation in Tall-1 human T cell line (JAK3)", "assay": "Cellular JAK3 potency assay: inhibition of IL-2 stimulated pSTAT5 in Tall-1 T cells", "assay_type": "cell-based", "settings": "IL-2 stimulated pSTAT5, Tall-1 T cells", "in_short": "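AlphaLISA SureFire Ultra measures STAT5 Tyr694/699 phosphorylation in lysed Tall-1 human T cells. Cells were exposed to compound for 1 h at 37 °C before a 30 min IL-2 challenge (300 ng/ml final). Values are pIC50 means with standard deviation from signal-versus-concentration curves.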", "values": [
      {"compound": "C=CC(=O)N1CC(CCn2c(=O)ccc3cnc(Nc4ccc(NS(C)(=O)=O)cc4)nc32)C1", "note": "[Example 69]", "Tall-1 (pIC50)": "B (B represents a pC50 value between 6.7 (included) and 7.5 (IC50 between 200 nM and 32 nM))"},
      {"compound": "C=CC(=O)N1CC(CCn2c(=O)ccc3cnc(Nc4ccc(N5CCN(C(=O)COC)CC5)cc4)nc32)C1", "note": "[Example 70]", "Tall-1 (pIC50)": "B (B represents a pC50 value between 6.7 (included) and 7.5 (IC50 between 200 nM and 32 nM))"},
      {"compound": "C=CC(=O)N1CC(CCn2c(=O)ccc3cnc(Nc4ccc(N5CCN(C(=O)OC)CC5)cc4)nc32)C1", "note": "[Example 71]", "Tall-1 (pIC50)": "B (B represents a pC50 value between 6.7 (included) and 7.5 (IC50 between 200 nM and 32 nM))"},
      {"compound": "C=CC(=O)N1CC(CCn2c(=O)ccc3cnc(Nc4ccc(N5CCN(C(=O)CC#N)CC5)cc4)nc32)C1", "note": "[Example 72]", "Tall-1 (pIC50)": "B (B represents a pC50 value between 6.7 (included) and 7.5 (IC50 between 200 nM and 32 nM))"},
      {"compound": "C=CC(=O)N1CC(CCn2c(=O)ccc3cnc(Nc4cccc(N5CCN(C(C)=O)CC5)c4)nc32)C1", "note": "[Example 78]", "Tall-1 (pIC50)": "B (B represents a pC50 value between 6.7 (included) and 7.5 (IC50 between 200 nM and 32 nM))"}
    ]},
    {"molecular_target": "Tyk2 (Homo sapiens (Human), UniProt P29597)", "sequence (P29597 whole entry)": "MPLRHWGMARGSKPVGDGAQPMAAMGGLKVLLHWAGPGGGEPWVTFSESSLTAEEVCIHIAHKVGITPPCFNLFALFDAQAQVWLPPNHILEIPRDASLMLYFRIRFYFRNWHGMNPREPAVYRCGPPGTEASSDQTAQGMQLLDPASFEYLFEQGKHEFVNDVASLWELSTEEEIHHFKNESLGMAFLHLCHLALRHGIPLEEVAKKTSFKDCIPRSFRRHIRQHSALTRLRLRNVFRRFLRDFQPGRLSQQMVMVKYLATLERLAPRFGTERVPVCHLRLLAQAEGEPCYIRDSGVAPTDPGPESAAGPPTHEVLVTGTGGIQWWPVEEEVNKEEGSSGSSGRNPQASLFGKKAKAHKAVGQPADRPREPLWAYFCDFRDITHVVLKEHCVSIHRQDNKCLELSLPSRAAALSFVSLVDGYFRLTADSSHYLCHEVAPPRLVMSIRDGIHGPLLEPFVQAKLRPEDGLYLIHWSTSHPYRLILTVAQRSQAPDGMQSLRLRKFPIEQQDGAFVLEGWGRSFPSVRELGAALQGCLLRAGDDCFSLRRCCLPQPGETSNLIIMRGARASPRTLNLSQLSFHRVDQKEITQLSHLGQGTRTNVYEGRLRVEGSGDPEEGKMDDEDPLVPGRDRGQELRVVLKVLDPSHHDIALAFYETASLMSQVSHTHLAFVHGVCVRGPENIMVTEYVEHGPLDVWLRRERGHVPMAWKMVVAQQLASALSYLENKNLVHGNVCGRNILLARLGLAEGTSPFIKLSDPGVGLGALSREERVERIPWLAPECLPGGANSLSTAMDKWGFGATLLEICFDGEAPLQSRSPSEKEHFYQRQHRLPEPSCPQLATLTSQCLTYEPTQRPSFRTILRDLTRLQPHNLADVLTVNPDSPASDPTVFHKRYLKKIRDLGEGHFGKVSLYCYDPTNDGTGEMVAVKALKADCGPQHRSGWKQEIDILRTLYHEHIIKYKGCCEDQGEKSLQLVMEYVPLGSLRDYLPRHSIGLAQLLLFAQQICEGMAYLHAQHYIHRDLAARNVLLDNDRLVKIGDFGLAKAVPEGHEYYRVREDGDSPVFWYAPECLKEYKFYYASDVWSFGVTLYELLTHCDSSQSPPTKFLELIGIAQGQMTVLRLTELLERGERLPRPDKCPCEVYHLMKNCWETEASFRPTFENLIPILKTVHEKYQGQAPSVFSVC", "assay": "Biochemical Tyk2 kinase assay (LanthaScreen)", "settings": "not given", "in_short": "as §1", "values": [
      {"compound": "C=CC(=O)N1CC(CCn2c(=O)ccc3cnc(Nc4ccc(NS(C)(=O)=O)cc4)nc32)C1", "note": "[Example 69]", "Tyk 2 (pKi)": "E (E represents a pKi value of 7 or below (Ki of 100 nM or above))"},
      {"compound": "C=CC(=O)N1CC(CCn2c(=O)ccc3cnc(Nc4ccc(N5CCN(C(=O)COC)CC5)cc4)nc32)C1", "note": "[Example 70]", "Tyk 2 (pKi)": "E (E represents a pKi value of 7 or below (Ki of 100 nM or above))"},
      {"compound": "C=CC(=O)N1CC(CCn2c(=O)ccc3cnc(Nc4ccc(N5CCN(C(=O)OC)CC5)cc4)nc32)C1", "note": "[Example 71]", "Tyk 2 (pKi)": "E (E represents a pKi value of 7 or below (Ki of 100 nM or above))"},
      {"compound": "C=CC(=O)N1CC(CCn2c(=O)ccc3cnc(Nc4ccc(N5CCN(C(=O)CC#N)CC5)cc4)nc32)C1", "note": "[Example 72]", "Tyk 2 (pKi)": "E (E represents a pKi value of 7 or below (Ki of 100 nM or above))"},
      {"compound": "C=CC(=O)N1CC(CCn2c(=O)ccc3cnc(Nc4cccc(N5CCN(C(C)=O)CC5)c4)nc32)C1", "note": "[Example 78]", "Tyk 2 (pKi)": "E (E represents a pKi value of 7 or below (Ki of 100 nM or above))"}
    ]},
    {"molecular_target": "JAK1 (Homo sapiens (Human), UniProt P23458)", "sequence (P23458 whole entry)": "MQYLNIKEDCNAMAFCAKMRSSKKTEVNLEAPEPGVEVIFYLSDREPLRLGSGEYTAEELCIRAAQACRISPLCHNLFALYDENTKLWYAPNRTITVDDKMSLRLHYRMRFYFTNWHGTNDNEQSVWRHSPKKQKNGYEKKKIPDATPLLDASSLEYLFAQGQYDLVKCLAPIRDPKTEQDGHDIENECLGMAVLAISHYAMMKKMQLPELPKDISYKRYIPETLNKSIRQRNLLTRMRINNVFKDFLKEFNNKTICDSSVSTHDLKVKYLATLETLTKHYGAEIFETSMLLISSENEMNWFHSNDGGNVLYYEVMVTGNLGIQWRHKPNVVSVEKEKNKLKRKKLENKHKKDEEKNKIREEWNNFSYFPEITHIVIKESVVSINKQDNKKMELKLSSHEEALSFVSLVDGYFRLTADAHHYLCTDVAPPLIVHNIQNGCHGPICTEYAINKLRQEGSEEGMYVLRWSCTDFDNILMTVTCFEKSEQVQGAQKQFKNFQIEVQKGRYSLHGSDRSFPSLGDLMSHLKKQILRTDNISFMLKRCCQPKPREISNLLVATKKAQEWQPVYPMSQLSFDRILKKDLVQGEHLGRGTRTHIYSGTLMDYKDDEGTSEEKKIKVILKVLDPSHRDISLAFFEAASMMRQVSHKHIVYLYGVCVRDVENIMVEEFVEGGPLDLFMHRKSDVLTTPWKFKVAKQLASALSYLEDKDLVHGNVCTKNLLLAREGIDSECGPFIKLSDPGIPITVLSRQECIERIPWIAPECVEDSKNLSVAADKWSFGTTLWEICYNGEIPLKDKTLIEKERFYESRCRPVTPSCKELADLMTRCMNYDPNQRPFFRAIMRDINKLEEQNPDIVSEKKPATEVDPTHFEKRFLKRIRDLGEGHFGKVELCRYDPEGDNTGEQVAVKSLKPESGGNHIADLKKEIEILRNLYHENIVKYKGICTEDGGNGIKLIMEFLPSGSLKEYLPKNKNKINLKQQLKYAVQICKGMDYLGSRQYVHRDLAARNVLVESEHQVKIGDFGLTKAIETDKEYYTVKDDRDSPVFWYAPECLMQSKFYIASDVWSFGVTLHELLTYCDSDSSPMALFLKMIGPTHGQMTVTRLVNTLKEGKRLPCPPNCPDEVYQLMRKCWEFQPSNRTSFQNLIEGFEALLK", "assay": "Biochemical JAK1 kinase assay (LanthaScreen)", "settings": "not given", "in_short": "as §1", "values": [
      {"compound": "C=CC(=O)N1CC(CCn2c(=O)ccc3cnc(Nc4ccc(NS(C)(=O)=O)cc4)nc32)C1", "note": "[Example 69]", "JAK 1 (pKi)": "E (E represents a pKi value of 7 or below (Ki of 100 nM or above))"},
      {"compound": "C=CC(=O)N1CC(CCn2c(=O)ccc3cnc(Nc4ccc(N5CCN(C(=O)COC)CC5)cc4)nc32)C1", "note": "[Example 70]", "JAK 1 (pKi)": "E (E represents a pKi value of 7 or below (Ki of 100 nM or above))"},
      {"compound": "C=CC(=O)N1CC(CCn2c(=O)ccc3cnc(Nc4ccc(N5CCN(C(=O)OC)CC5)cc4)nc32)C1", "note": "[Example 71]", "JAK 1 (pKi)": "E (E represents a pKi value of 7 or below (Ki of 100 nM or above))"},
      {"compound": "C=CC(=O)N1CC(CCn2c(=O)ccc3cnc(Nc4ccc(N5CCN(C(=O)CC#N)CC5)cc4)nc32)C1", "note": "[Example 72]", "JAK 1 (pKi)": "E (E represents a pKi value of 7 or below (Ki of 100 nM or above))"},
      {"compound": "C=CC(=O)N1CC(CCn2c(=O)ccc3cnc(Nc4cccc(N5CCN(C(C)=O)CC5)c4)nc32)C1", "note": "[Example 78]", "JAK 1 (pKi)": "E (E represents a pKi value of 7 or below (Ki of 100 nM or above))"}
    ]}
  ]
}
